Reference: PMC4770093, “The role of kinetic context in apparent biased agonism at GPCRs” (Nature Communications, 2016)
“And” between values parts separate entries of the source, which are not always exact repeats. Equal entries are not always repeated.

Assays:
D2LR [1] = target: T1, D2LR (Homo sapiens, UniProt P14416); test: Inhibition of forskolin-induced cAMP production (BRET CAMYEL biosensor); settings: for Emax cAMP: relative to the maximal response of ropinirole; for Inhibition of cAMP production measured using a CAMYEL BRET biosensor, Net BRET: single experiments n = 1, 2, 3
T1 sequence (P14416 whole entry): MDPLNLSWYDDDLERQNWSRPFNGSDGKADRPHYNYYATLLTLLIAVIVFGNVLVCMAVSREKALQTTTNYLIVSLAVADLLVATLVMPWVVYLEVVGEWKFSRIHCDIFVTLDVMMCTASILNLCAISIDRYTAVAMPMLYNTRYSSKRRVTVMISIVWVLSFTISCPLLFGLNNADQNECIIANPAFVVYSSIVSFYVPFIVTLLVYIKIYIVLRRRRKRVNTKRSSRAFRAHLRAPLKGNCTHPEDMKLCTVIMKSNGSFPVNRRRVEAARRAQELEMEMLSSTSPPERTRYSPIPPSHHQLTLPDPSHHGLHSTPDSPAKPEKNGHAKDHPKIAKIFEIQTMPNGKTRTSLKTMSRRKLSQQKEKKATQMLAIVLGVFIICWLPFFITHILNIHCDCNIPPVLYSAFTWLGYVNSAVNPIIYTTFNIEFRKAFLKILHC
Experimental: Flp-In-CHO cells stably expressing the D2LR were seeded at a density of 2,000,000 cells per 10-cm dish and were transfected the following day using polyethylenimine as the transfection reagent. The cells were transfected with 3 μg CAMYEL, to allow the detection of cAMP levels within the cells. Twenty-four hours after transfection, the cells were plated into 96-well CulturPlates (PerkinElmer) and grown overnight. The cells were equilibrated in Hank's balanced salt solution at 37 °C (or 25 °C when indicated) before starting the experiment. The cells were co-stimulated with the agonists and 10 μM forskolin for the indicated timeframes when the BRET readings were captured. Coelenterazine (Promega) was added at a final concentration of 5 μM at least 3 min before measurement. […] Net BRET was determined by subtraction of the vehicle control co-added with 10 μM forskolin.

D2LR [2] = target: T1, D2LR; test: ERK1/2 phosphorylation assay (Alphascreen SureFire); format: cell-based; parameters: expressed in transfected cells; settings: agonist 10 μM (cariprazine 1 μM), single experiments n=1 to n=4
Experimental: ERK1/2 phosphorylation was measured using the Alphascreen SureFire ERK kit (PerkinElmer, Waltham, USA). Cells were seeded into 96-well plates at a density of 50,000 cells per well. After 5–7 h, cells were washed with PBS and incubated in serum-free DMEM overnight before assaying. Dose–response experiments were performed for each ligand at 37 °C in the presence of 0.1% ascorbic acid. […] The plate was shaken for 5 min at room temperature (RT) before transferring 5 μl of the lysates to a white 384-well Proxiplate (PerkinElmer, Waltham, USA). […] Plates were read using a Fusion-TM plate reader (PerkinElmer, Waltham, USA).

## CCCN1CCC[C@@H](c2cccc(O)c2)C1 [S-3PPP, (S)-(-)-3-(3-hydroxyphenyl)-N-propylpiperidine]
D2LR [1]; 2 min
  Emax cAMP: 73 ± 1.9
D2LR [1]; 5 min
  Emax cAMP: 73 ± 2.0
D2LR [1]; 5 minute timepoint, Flp-In-CHO-D2LR
  Log(τ/KA) cAMP: 6.65 ± 0.06
D2LR [1]; 5 minute timepoint, dopamine as reference agonist
  ΔLog(τ/KA) cAMP: -1.40 ± 0.08
D2LR [1]; 10 min
  Emax cAMP: 70 ± 1.7
D2LR [1]; 15 min
  Emax cAMP: 70 ± 1.9
D2LR [1]; 30 min
  Emax cAMP: 71 ± 2.5
D2LR [1]; 45 min
  Emax cAMP: 64 ± 1.4
D2LR [1]; 60 min
  Emax cAMP: 53 ± 2.4
D2LR [1]; 75 min
  Emax cAMP: 66 ± 1.4
D2LR [1]; 90 min
  Emax cAMP: 60 ± 0.8
D2LR [1]; time 2.21667 mins
  Inhibition of cAMP production measured using a CAMYEL BRET biosensor, Net BRET: 0.05465 and 0.08466 and 0.07325
D2LR [1]; time 2.58333 mins
  Inhibition of cAMP production measured using a CAMYEL BRET biosensor, Net BRET: 0.05879 and 0.0813 and 0.07011
D2LR [1]; time 2.95 mins
  Inhibition of cAMP production measured using a CAMYEL BRET biosensor, Net BRET: 0.05876 and 0.09107 and 0.0617
D2LR [1]; time 3.31667 mins
  Inhibition of cAMP production measured using a CAMYEL BRET biosensor, Net BRET: 0.05926 and 0.0872 and 0.07317
D2LR [1]; time 3.68333 mins
  Inhibition of cAMP production measured using a CAMYEL BRET biosensor, Net BRET: 0.06005 and 0.08327 and 0.07534
D2LR [1]; time 4.05 mins
  Inhibition of cAMP production measured using a CAMYEL BRET biosensor, Net BRET: 0.08108 and 0.08891 and 0.07666
D2LR [1]; time 4.41667 mins
  Inhibition of cAMP production measured using a CAMYEL BRET biosensor, Net BRET: 0.07291 and 0.08859 and 0.07671
D2LR [1]; time 4.78333 mins
  Inhibition of cAMP production measured using a CAMYEL BRET biosensor, Net BRET: 0.08207 and 0.09068 and 0.07598
D2LR [1]; time 5.15 mins
  Inhibition of cAMP production measured using a CAMYEL BRET biosensor, Net BRET: 0.088 and 0.08877 and 0.07517
D2LR [1]; time 5.51667 mins
  Inhibition of cAMP production measured using a CAMYEL BRET biosensor, Net BRET: 0.08023 and 0.0868 and 0.07779
D2LR [1]; time 5.88333 mins
  Inhibition of cAMP production measured using a CAMYEL BRET biosensor, Net BRET: 0.08241 and 0.08562 and 0.08229
D2LR [1]; time 6.25 mins
  Inhibition of cAMP production measured using a CAMYEL BRET biosensor, Net BRET: 0.0777 and 0.08078 and 0.07833
D2LR [1]; time 6.61667 mins
  Inhibition of cAMP production measured using a CAMYEL BRET biosensor, Net BRET: 0.07786 and 0.08188 and 0.07763
D2LR [1]; time 6.98333 mins
  Inhibition of cAMP production measured using a CAMYEL BRET biosensor, Net BRET: 0.08463 and 0.08155 and 0.08058
D2LR [1]; time 7.35 mins
  Inhibition of cAMP production measured using a CAMYEL BRET biosensor, Net BRET: 0.08243 and 0.07743 and 0.07354
D2LR [1]; time 7.71667 mins
  Inhibition of cAMP production measured using a CAMYEL BRET biosensor, Net BRET: 0.08152 and 0.0852 and 0.08224
D2LR [1]; time 8.08333 mins
  Inhibition of cAMP production measured using a CAMYEL BRET biosensor, Net BRET: 0.08811 and 0.08583 and 0.07638
D2LR [1]; time 8.45 mins
  Inhibition of cAMP production measured using a CAMYEL BRET biosensor, Net BRET: 0.08386 and 0.08753 and 0.07171
D2LR [1]; time 8.81667 mins
  Inhibition of cAMP production measured using a CAMYEL BRET biosensor, Net BRET: 0.09076 and 0.08128 and 0.08398
D2LR [1]; time 9.18333 mins
  Inhibition of cAMP production measured using a CAMYEL BRET biosensor, Net BRET: 0.08865 and 0.08603 and 0.07348
D2LR [1]; time 9.55 mins
  Inhibition of cAMP production measured using a CAMYEL BRET biosensor, Net BRET: 0.08292 and 0.0837 and 0.08159
D2LR [1]; time 9.91667 mins
  Inhibition of cAMP production measured using a CAMYEL BRET biosensor, Net BRET: 0.09198 and 0.07873 and 0.08223
D2LR [1]; time 10.2833 mins
  Inhibition of cAMP production measured using a CAMYEL BRET biosensor, Net BRET: 0.08942 and 0.08142 and 0.08126
D2LR [1]; time 10.65 mins
  Inhibition of cAMP production measured using a CAMYEL BRET biosensor, Net BRET: 0.09447 and 0.08477 and 0.08651
D2LR [1]; time 11.0167 mins
  Inhibition of cAMP production measured using a CAMYEL BRET biosensor, Net BRET: 0.09406 and 0.0745 and 0.08653
D2LR [1]; time 11.3833 mins
  Inhibition of cAMP production measured using a CAMYEL BRET biosensor, Net BRET: 0.09952 and 0.0798 and 0.08963
D2LR [1]; time 11.75 mins
  Inhibition of cAMP production measured using a CAMYEL BRET biosensor, Net BRET: 0.09797 and 0.09183 and 0.0831
D2LR [1]; time 12.1167 mins
  Inhibition of cAMP production measured using a CAMYEL BRET biosensor, Net BRET: 0.0995 and 0.08775 and 0.0921
D2LR [1]; time 12.4833 mins
  Inhibition of cAMP production measured using a CAMYEL BRET biosensor, Net BRET: 0.08767 and 0.08489 and 0.09746
D2LR [1]; time 12.85 mins
  Inhibition of cAMP production measured using a CAMYEL BRET biosensor, Net BRET: 0.09546 and 0.09264 and 0.08756
D2LR [1]; time 13.2167 mins
  Inhibition of cAMP production measured using a CAMYEL BRET biosensor, Net BRET: 0.09597 and 0.0888 and 0.1009
D2LR [1]; time 13.5833 mins
  Inhibition of cAMP production measured using a CAMYEL BRET biosensor, Net BRET: 0.09698 and 0.09198 and 0.09379
D2LR [1]; time 13.95 mins
  Inhibition of cAMP production measured using a CAMYEL BRET biosensor, Net BRET: 0.09269 and 0.09222 and 0.0998
D2LR [1]; time 14.3167 mins
  Inhibition of cAMP production measured using a CAMYEL BRET biosensor, Net BRET: 0.1016
D2LR [2]; time 7.5 mins
  alpahscreen assay to detect pERK1/2, counts: 7.838 counts and 8.667 counts and 10.676 counts and 8.644 counts
D2LR [2]; time 10 mins
  alpahscreen assay to detect pERK1/2, counts: 7.633 counts and 9.485 counts and 6.489 counts and 6.6386 counts
D2LR [2]; time 15 mins
  alpahscreen assay to detect pERK1/2, counts: 3.509 counts and 3.085 counts and 2.82 counts and 2.443 counts
D2LR [2]; time 20 mins
  alpahscreen assay to detect pERK1/2, counts: 2.3 counts and 2.162 counts and 3.001 counts and 1.823 counts
D2LR [2]; time 30 mins
  alpahscreen assay to detect pERK1/2, counts: 1.331 counts and 1.287 counts and 2.069 counts and 1.34 counts
